Tested on: C57BL/6 mice, which spontaneously develop osteoarthritis
Experiment: Macroscopic examination (India ink) of knee joint cartilage in the spontaneous osteoarthritis mouse model
Type: in vivo
Conditions: oral HA4 100 mg/10 ml/kg once daily for 2 weeks
Description: In this example, HA4 was administered to C57BL/6 mice, which spontaneously develop osteoarthritis, to examine effects thereof.
20-week-old male C57BL/6 mice were purchased from Charles River Laboratories Japan, Inc., and animals which developed osteoarthritis were used. The animals were divided into the negative control (treated with physiological saline) group and the oral HA4 (100 mg/10 ml/kg) treated group.
In this example, 10 mg/ml HA4 was prepared. Specifically, HA4 was prepared by the method of Tawada et al. (Tawada A, Masa T, Oonuki Y, Watanabe A, Matsuzaki Y, Asari A. Large-scale preparation, purification, and characterization of hyaluronan oligosaccharides from 4-mers to 52-mers. Glycobiology. 2002; 12(7): 421-6.), and the concentration was adjusted with physiological saline. Furthermore, physiological saline was prepared as a control.
In this example, the test substance or physiological saline was orally given to mice which developed osteoarthritis using an oral sonde once daily for 2 weeks.
Osteoarthritis curing effects were determined macroscopically. […] For this evaluation method, refer to Chang D G, Iverson E P, Schinagl R M, Sonoda M, Amiel D, Coutts R D, Sah R L. Quantitation and localization of cartilage degeneration following the induction of osteoarthritis in the rabbit knee. […]

Substance: tetrasaccharide hyaluronan [HA4]
- Therapeutic effects against osteoarthritis: therapeutic effects against osteoarthritis were confirmed
- MEAN score (remaining India ink) (saline control mean 4.8): MEAN 1.4

— patent US8153614B2, “Treatment of osteoarthritis” (Glycoscience Laboratories, Inc., priority 2006, dated 2012)
